According to ChEMBL document CHEMBL1201862, “PubChem BioAssay data set” (2004):
Calls of active or inactive are those of the source.

Experiments:
[1] = HEK-293T cell viability reduction – luminescence, B-cell screen hits, cytotoxicity control for BCR NF-kB inhibitor project, dose response (AID 489021); format: functional, cell-based;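 also: HEK-293T cells carrying an NF-kB luciferase reporter; cells exposed to compound for about 14 hours before viability readout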
[2] = target: Alkaline phosphatase, placental type (Homo sapiens, UniProt P05187); assay: human placental alkaline phosphatase inhibition – biochemical, luminescence, confirmation (AID 1512); format: functional
[3] = target: T1, Alkaline phosphatase, tissue-nonspecific isozyme (Homo sapiens, UniProt P05186); assay: potency against alkaline phosphatase TNAP – biochemical, luminescent, dose response, SAR follow-up (AID 1056)
T1 sequence (P05186 whole entry): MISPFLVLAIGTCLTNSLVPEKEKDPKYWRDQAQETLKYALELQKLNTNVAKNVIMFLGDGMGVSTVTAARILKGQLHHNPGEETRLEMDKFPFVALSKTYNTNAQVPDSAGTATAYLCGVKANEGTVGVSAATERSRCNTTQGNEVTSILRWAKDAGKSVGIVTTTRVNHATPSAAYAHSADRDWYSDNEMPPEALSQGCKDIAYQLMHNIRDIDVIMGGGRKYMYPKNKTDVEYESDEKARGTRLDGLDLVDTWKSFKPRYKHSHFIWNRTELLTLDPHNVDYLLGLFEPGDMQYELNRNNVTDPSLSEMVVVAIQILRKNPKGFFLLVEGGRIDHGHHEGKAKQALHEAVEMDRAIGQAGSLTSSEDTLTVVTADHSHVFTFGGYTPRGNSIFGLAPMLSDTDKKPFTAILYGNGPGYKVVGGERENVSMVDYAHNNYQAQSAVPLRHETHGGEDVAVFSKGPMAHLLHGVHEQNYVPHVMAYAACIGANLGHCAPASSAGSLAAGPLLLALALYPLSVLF

[4] = microbe, parasite or virus in culture; format: functional; details: Mycobacterium tuberculosis
[5] = Trypanosoma cruzi growth suppression in host cells – NIH3T3 host cells, beta-gal luminescence, confirmation (AID 2044); format: functional, cell-based;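 also: intracellular parasites grown in NIH/3T3 mouse fibroblasts as host cells; luminescent beta-galactosidase reporter signal from transgenic T. cruzi replicating inside host cells; inhibitors lower the luminescence signal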
Protein skinhead-1 = target: T2, Protein skinhead-1 (Caenorhabditis elegans, UniProt P34707); format: functional
T2 sequence (P34707 whole entry): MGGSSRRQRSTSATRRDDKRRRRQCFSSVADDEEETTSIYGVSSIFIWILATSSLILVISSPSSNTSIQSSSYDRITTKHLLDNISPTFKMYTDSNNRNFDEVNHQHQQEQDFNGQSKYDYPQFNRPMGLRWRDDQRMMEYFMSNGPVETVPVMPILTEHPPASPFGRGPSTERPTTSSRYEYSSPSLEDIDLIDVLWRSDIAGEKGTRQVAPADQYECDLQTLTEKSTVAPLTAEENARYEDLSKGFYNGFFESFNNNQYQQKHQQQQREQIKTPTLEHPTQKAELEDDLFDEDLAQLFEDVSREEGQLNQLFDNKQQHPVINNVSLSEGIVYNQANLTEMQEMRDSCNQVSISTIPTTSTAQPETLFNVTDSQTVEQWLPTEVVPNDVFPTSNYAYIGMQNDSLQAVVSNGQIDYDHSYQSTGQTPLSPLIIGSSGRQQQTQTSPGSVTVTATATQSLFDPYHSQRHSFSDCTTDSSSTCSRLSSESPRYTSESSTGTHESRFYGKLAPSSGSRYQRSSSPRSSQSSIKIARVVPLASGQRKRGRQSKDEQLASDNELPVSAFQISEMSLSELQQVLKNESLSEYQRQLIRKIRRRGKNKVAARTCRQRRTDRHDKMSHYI

cells [6] = format: functional
[7] = NIH3T3 cell viability loss – ATP luminescence, mouse fibroblasts, counter-screen, dose response (AID 2010); format: functional, cell-based;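 also: cells exposed to compound for about 90 hours before reading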
[8] = THP-1 cell cytotoxicity, dose response, cytotoxicity control for non-replicating M. tuberculosis project (AID 489025); format: functional
[9] = Vero E6 cell cytotoxicity, dose response, cytotoxicity control for non-replicating M. tuberculosis project, secondary assay (AID 492998); format: functional, VeroE6; details: Vero C1008
[10] = HepG2 cell cytotoxicity, dose response, cytotoxicity control for non-replicating M. tuberculosis project (AID 489018); format: functional; details: Mycobacterium tuberculosis
Cytochrome P450 3A4 = Cytochrome P450 3A4 (Homo sapiens, UniProt P08684); details: Potency;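 also: confirmatory qHTS run detecting inhibitors and substrates of CYP3A4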
[11] = viability of HCT116 lacking mutant beta-catenin – cell-based, human colon tumor, dose response (AID 1045); format: functional;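 also: HCT116 colon tumor cells with beta catenin knocked out; cells exposed to compound for 60 hours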
[12] = loss of viability in HepG2 cells – cell-based, CellTiter-Glo, cherry-picked, cytotoxicity control for Shn3 inhibitor project, dose response (AID 624134); format: functional
[13] = target: T3, Microphthalmia-associated transcription factor (Homo sapiens, UniProt O75030); assay: reducers of TRPM1 reporter luminescence, concentration series – cell-based, SK-MEL-5, cherry-picked, set 3, MITF inhibitor project, dose response (AID 493073); format: functional;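 also: SK-MEL-5 melanoma cells with luciferase driven by the MITF target TRPM1 promoter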
T3 sequence (O75030 whole entry): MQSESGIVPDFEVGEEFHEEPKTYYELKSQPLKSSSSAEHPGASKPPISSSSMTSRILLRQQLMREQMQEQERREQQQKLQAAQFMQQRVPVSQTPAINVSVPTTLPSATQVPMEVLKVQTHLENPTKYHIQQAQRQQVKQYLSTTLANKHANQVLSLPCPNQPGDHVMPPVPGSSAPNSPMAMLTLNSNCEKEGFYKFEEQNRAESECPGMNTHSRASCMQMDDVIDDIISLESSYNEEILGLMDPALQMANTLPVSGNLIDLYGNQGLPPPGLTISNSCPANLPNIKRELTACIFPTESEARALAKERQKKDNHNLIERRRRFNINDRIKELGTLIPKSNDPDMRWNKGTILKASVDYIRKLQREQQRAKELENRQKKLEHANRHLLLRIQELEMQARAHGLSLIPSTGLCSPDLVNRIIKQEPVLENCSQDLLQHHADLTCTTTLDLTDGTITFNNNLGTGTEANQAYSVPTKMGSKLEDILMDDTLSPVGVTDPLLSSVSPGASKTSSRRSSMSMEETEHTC

[14] = reduction of Shn3 3'UTR-driven luciferase in osteoblasts – cell-based, Clone20 osteoblasts, firefly luciferase, cherry-picked, dose response (AID 624132); format: functional;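 also: firefly luciferase luminescence from reporter carrying the Shn3 3'UTR in osteoblasts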
[15] = non-specific 3'UTR reporter inhibition in Clone20-Shn3RL – cell-based, Renilla luciferase, cherry-picked, counter-screen for Shn3 inhibitor project, dose response (AID 624133); format: functional
BJ [16] = assay: BJ-TERT-LT-ST fibroblast viability loss – cell-based, RAS-independent, luminescence, dose response (AID 1935); format: functional; details: Homo sapiens;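 also: BJ fibroblasts immortalized with TERT plus LT and ST oncogenes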
[17] = DRD fibroblast viability loss – cell-based, non-viral oncogenic, luminescence, dose response (AID 1934); format: functional; details: Homo sapiens
BJ [18] = assay: cells; format: functional, cell-based; details: Homo sapiens
[19] = viability of PTEN-deleted HCT116 cells – cell-based, HCT116 PTEN knockout, dose response (AID 1047); format: functional;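 also: HCT116 colon tumor cells with PTEN knocked out; cells exposed to compound for 60 hours before readout; potency for loss of cell viability measured by luminescence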
BJ [20] = assay: BJ-TERT fibroblast viability loss – cell-based, RAS-independent, luminescence, dose response (AID 1933); format: functional; details: Homo sapiens
cells [21] = format: functional, cell-based
Ion channel NompC = Ion channel NompC (Danio rerio, UniProt Q7T1G6); assay: Dose response cell-based high-throughput screening assay for agonists of the transient receptor potential channel N1 (TRPN1). [Related pubchem assays (depositor defined):AID1424, AID1448]; format: functional
cells [22] = format: functional, cell-based; remark: listed apart in the source
Mucolipin-3 = target: T4, Mucolipin-3 (Homo sapiens, UniProt Q8TDD5); assay: Fluorescence counterscreen assay for […] agonists: dose response cell-based high-throughput screening assay to identify agonists of the transient receptor potential channel ML3 (TRPML3). [Related pubchem assays: 1424, 1448 ]; format: functional
T4 sequence (Q8TDD5 whole entry): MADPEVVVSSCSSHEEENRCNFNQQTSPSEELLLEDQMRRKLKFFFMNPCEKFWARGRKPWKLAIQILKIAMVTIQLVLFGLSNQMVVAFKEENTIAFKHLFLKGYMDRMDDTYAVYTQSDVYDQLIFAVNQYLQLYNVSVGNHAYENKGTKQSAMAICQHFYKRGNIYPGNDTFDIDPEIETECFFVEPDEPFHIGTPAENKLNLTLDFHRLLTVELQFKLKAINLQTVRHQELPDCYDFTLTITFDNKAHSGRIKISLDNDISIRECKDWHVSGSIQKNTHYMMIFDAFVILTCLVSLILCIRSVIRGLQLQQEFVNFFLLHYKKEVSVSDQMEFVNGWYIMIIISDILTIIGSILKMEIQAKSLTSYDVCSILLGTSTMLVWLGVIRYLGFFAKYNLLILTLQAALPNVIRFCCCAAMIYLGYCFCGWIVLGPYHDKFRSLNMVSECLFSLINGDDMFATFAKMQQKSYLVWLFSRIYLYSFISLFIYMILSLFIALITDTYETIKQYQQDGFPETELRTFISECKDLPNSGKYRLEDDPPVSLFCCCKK

Nonstructural protein 1 = Nonstructural protein 1 (Influenza A virus, UniProt Q194T2); format: functional, Influenza A virus (A/California/07/2009(H1N1))
[23] = target: Voltage-dependent T-type calcium channel subunit alpha-1H (Homo sapiens, UniProt O95180); format: functional;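 also: channel activity triggered by adding a high calcium stimulation buffer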
[24] = target: T5, Serine/threonine-protein phosphatase (Homo sapiens, UniProt Q9BPW0); assay: Counterscreen for inhibitors of PP1: fluorescence-based biochemical high throughput dose response assay to identify inhibitors of Protein Phosphatase 5 (PP5). [Related pubchem assays: 2034 (Summary (PP5 inhibitors)), 1987 (PP5 inhibitors in singlate), 2235 (PP1 inhibitors in singlate)]
T5 sequence (Q9BPW0 whole entry): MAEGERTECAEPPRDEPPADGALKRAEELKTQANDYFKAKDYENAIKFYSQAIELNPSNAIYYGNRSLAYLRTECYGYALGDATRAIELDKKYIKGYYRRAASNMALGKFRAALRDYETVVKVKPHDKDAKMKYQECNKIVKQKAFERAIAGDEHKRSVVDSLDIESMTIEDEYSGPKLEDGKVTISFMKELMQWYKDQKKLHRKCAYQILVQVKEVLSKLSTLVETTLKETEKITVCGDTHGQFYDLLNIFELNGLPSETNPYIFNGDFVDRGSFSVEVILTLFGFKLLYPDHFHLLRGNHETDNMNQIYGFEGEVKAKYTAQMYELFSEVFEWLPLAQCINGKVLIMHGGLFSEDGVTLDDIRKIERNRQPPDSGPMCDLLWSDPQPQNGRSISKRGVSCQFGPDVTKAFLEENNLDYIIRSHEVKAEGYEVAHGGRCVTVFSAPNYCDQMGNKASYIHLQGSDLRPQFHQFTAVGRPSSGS

[25] = target: Polyadenylate-binding protein 1 (Homo sapiens, UniProt P11940); assay: blockers of PABP interaction with poly(A) – biochemical, fluorescence polarization, […] (AID 2014)
[26] = target: Serine/threonine-protein phosphatase PP1-alpha catalytic subunit (Homo sapiens, UniProt P62136); assay: inhibition of protein phosphatase 1 activity – biochemical, fluorescence, dose response (AID 2403);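 also: phosphatase turnover of OMFP into fluorescent 3-O-methylfluorescein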
SUMO-activating enzyme [27] = target: T6, SUMO-activating enzyme (Homo sapiens, UniProt Q9UBT2); assay: blockers of UBC9-mediated SUMO conjugation – biochemical, AlphaScreen, SUMOylation inhibitor project, confirmation (AID 2018); format: functional
SUMO-activating enzyme [28] = target: T6, SUMO-activating enzyme; assay: blockers of SAE1/SAE2–UBC9 SUMO transfer – biochemical, HTRF, uHTS, primary screen (AID 2006); format: protein-complex assay
[29] = target: Eukaryotic translation initiation factor 4H (Homo sapiens, UniProt Q15056); assay: eIF4H binding inhibition – biochemical, uHTS, fluorescence polarization, translation initiation inhibitor project, primary screen (AID 2012)

Cytochrome P450 3A4, sequence (P08684 whole entry): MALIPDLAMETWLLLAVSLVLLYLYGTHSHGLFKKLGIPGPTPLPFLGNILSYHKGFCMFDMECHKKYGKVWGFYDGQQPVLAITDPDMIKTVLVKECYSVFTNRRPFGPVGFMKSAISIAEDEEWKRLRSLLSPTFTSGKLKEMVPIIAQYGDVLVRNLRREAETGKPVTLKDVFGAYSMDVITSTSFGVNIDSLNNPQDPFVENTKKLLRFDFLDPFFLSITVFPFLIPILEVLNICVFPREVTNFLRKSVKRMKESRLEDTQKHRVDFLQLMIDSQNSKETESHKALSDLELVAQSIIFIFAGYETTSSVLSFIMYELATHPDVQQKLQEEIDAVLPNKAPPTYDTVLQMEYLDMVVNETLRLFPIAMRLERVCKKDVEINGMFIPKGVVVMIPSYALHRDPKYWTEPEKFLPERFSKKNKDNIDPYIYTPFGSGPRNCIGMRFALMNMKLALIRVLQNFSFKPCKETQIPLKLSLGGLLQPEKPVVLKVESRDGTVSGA
T6 sequence (Q9UBE0 whole entry): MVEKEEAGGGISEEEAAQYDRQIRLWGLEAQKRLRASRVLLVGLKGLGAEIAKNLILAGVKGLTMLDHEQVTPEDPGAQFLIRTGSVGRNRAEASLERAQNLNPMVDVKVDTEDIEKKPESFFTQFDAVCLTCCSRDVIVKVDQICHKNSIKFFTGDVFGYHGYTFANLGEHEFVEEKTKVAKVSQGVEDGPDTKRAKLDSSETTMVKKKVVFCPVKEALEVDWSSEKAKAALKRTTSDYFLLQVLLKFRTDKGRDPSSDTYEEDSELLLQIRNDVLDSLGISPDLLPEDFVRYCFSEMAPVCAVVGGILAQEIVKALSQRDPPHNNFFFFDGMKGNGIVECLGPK
T6 sequence (Q9UBT2 whole entry): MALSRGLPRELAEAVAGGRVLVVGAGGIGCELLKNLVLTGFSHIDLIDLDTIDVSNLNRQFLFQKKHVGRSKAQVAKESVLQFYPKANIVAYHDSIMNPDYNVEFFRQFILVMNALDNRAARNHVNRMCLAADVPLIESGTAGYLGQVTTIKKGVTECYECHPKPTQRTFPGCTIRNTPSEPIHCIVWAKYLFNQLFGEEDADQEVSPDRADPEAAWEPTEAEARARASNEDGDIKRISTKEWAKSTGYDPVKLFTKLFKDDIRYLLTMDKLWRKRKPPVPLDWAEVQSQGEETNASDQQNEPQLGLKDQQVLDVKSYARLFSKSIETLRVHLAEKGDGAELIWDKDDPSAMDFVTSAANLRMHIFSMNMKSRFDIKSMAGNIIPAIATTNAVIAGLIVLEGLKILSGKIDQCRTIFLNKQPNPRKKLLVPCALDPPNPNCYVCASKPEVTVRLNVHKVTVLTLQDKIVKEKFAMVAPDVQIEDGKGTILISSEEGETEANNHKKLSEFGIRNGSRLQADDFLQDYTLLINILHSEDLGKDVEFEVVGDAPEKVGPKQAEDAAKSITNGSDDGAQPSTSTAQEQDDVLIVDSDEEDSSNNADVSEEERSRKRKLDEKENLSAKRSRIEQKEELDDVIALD
Ion channel NompC, sequence (Q7T1G6 whole entry): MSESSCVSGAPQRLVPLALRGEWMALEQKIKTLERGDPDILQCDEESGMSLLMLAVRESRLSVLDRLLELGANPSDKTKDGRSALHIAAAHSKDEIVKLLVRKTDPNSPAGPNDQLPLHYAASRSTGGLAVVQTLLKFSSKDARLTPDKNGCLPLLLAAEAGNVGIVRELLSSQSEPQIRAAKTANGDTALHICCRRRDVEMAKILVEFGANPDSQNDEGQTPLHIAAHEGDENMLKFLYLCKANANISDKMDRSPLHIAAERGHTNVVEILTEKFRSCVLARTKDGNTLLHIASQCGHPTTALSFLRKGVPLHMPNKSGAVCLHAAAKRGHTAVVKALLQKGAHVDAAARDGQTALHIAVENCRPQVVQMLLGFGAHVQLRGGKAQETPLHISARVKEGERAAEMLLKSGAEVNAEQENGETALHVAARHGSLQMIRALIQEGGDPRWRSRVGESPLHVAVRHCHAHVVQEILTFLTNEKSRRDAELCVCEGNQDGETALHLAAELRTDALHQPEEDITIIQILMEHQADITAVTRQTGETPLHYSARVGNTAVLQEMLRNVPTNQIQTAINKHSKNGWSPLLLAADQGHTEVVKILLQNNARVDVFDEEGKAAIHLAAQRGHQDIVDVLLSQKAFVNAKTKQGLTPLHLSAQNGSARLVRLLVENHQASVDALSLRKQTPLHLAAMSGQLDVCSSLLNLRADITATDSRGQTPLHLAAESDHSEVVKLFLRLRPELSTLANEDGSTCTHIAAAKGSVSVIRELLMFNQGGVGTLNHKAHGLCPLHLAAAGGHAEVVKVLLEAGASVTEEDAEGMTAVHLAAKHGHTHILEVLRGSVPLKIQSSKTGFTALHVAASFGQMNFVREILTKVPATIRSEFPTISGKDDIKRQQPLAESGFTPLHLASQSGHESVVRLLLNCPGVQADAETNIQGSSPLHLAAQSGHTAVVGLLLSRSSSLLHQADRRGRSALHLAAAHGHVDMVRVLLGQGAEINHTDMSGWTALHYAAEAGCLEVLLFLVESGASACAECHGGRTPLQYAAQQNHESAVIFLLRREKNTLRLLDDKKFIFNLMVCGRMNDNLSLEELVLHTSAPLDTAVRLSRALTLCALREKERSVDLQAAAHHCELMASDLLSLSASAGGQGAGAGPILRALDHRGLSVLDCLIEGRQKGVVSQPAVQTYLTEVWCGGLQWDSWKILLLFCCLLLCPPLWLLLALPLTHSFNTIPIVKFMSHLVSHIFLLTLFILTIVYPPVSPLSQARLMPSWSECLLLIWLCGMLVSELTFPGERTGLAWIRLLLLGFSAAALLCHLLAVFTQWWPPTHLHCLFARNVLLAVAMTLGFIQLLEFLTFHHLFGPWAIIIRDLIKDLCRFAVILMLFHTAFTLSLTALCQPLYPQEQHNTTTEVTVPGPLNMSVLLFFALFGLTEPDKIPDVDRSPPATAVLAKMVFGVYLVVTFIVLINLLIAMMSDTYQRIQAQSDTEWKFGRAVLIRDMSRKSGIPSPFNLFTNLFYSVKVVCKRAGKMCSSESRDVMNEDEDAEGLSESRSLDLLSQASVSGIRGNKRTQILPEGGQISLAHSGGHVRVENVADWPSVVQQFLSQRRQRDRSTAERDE
Nonstructural protein 1, sequence (Q194T2 whole entry): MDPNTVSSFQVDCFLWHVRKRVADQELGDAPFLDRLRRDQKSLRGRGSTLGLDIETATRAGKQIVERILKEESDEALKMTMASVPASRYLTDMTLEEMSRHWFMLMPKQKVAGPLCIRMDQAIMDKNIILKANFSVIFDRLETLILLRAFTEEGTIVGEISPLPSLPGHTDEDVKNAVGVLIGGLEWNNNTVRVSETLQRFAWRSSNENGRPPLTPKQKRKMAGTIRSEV
Polyadenylate-binding protein 1, sequence (P11940 whole entry): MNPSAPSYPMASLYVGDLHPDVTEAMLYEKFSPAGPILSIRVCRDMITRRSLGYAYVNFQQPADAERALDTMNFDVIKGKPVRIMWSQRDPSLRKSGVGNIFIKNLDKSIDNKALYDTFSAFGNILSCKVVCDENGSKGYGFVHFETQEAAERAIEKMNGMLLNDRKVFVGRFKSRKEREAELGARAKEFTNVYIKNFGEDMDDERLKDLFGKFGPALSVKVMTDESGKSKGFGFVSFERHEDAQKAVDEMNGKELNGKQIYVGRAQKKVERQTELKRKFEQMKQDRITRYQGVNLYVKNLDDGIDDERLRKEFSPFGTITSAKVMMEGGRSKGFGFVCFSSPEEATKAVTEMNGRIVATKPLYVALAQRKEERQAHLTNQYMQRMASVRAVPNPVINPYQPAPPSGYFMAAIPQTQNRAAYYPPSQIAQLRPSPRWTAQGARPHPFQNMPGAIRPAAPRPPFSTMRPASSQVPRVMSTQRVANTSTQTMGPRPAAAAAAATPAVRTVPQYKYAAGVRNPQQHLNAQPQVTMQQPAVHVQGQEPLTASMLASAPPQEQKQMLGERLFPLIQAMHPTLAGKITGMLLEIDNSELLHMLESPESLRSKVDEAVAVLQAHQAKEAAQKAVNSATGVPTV
Alkaline phosphatase, placental type, sequence (P05187 whole entry): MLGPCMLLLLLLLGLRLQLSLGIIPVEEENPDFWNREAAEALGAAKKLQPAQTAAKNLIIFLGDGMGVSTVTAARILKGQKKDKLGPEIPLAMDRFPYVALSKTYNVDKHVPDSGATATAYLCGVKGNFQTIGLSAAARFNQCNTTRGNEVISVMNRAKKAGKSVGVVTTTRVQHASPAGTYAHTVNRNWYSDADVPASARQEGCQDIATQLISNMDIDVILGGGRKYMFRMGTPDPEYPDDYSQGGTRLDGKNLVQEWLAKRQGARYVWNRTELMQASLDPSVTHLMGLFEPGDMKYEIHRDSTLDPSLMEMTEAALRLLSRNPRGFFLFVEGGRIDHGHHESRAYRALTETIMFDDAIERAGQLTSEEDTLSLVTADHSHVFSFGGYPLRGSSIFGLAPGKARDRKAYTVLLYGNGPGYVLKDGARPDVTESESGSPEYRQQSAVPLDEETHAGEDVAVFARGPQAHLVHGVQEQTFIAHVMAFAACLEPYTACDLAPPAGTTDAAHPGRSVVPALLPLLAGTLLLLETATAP

COc1ccc(C=C(C(C)=O)C(C)=O)cc1OC
IC50 [1]: > 80 µM (inactive)

Cc1cc(C)nc(SCC(=O)c2ccc(O)cc2)n1
IC50 [2]: > 100 µM (inactive) | IC50 [3]: > 100 µM (inactive)

CCCC(NCC(O)COc1ccc(-c2ccccc2)cc1)c1ccccc1 (stereo unspecified)
CC50 [4]: 12.6 µM (active) | EC50 [5]: 2.1 µM (active) | IC50 (Protein skinhead-1): > 100 µM (inactive) | IC50 (cells [6]): 12 µM (active) | EC50 [7]: 17.6 µM (active) | CC50 [8]: 15.7 µM (active) | CC50 [9]: 12.7 µM (active) | CC50 [10]: > 20 µM (active)

c1ccc(N2CCN(Cc3nc4ccccc4[nH]3)CC2)nc1
AC50 (Cytochrome P450 3A4): 25.1 µM (inconclusive)

COc1ccc(C(C(=O)NC2CCCCC2)N(C(=O)CCl)c2ccc(OC)cc2)cc1 (stereo unspecified)
IC50 [1]: > 80 µM (inactive) | EC50 [11]: 0.721 µM (active) | AC50 [12]: > 70 µM (inactive) | AC50 [13]: 9.27 µM (active) | AC50 [14]: 5.56 µM (active) | AC50 [15]: 14.8 µM (active) | EC50 (BJ [16]): 8.28 µM (inconclusive) | EC50 [17]: 1.26 µM (active) | EC50 (BJ [18]): 5.19 µM (active) | EC50 [19]: 0.959 µM (active) | EC50 (BJ [20]): 1.15 µM (inconclusive)

O=C(N/N=C/c1cc(Cl)cc(Cl)c1O)c1ccncc1
EC50 (cells [21]): 259 µM (active) | EC50 (Ion channel NompC): 6.49 µM (active) | EC50 (cells [22]): > 350 µM (not active) | EC50 (Mucolipin-3): 14.2 µM (not active) | IC50 (Nonstructural protein 1): 5.57 µM (active)

C[C@H]1[C@H](C)CC[C@]2(C(=O)O)CC[C@]3(C)C(=CCC4[C@@]5(C)C[C@@H](O)[C@H](O)[C@@](C)(CO)[C@@H]5CC[C@]43C)[C@H]12 (stereo partly specified)
AC50 (Cytochrome P450 3A4): 15.8 µM (inconclusive)

CCCCN(CC)S(=O)(=O)c1ccc(C(=O)Nc2nnc(-c3cccs3)o2)cc1
EC50 [5]: 1.22 µM (active) | IC50 (cells [6]): 4.66 µM (active) | EC50 [7]: 5.48 µM (active) | EC50 [23]: 2.67 µM (active) | CC50 [8]: 3.18 µM (active) | CC50 [9]: 4.23 µM (active) | CC50 [10]: 9.5 µM (active)

Nc1cc(=O)[nH]c(=O)n1CC1CC1
AC50 (Cytochrome P450 3A4): 3.98 µM (inconclusive)

COc1ccc(N=C(S)NCc2ccccc2)c(OC)c1
IC50 [1]: > 80 µM (inactive)

N#Cc1c(-c2ccc(Cl)cc2)cc(-c2cccs2)nc1SCC(=O)O
IC50 [24]: > 67 µM (not active) | IC50 [25]: 39.7 µM (active) | IC50 [26]: 6.66 µM (active) | IC50 (SUMO-activating enzyme [27]): 8.73 µM (active) | IC50 (SUMO-activating enzyme [28]): > 100 µM (inactive) | IC50 [29]: 10.7 µM (active)

O=C(O)c1cc2c(cc1Br)OCCCO2
EC50 (Ion channel NompC): > 29.9 µM (inactive) | EC50 (Mucolipin-3): > 29.9 µM (not active)
